The test has as its system baker's yeast. As to the kind of experiment: Bioconversion (biodegradation) assay with baker's yeast. The test is classed as cell-based, Saccharomyces caerevisae (baker's yeast). Here is the method: Biodegradation assays were carried out according to the following steps: • Step 1. Culture of microorganisms: The microorganisms studied were allowed to grow on a defined medium, in order to increase biomass and develop possible enzymatic activity. • Step 2. Bioconversion assay: The desired amount of 3-MCPD was added to the reactor, and samples were withdrawn at different reaction time to follow the kinetics of biodegradation. • Step 3. Centrifugation: Samples withdrawn from the mixture were centrifuged, the pellet was discarded and the supernatant was used for further treatment and analysis. • Step 4. Extraction of 3-MCPD: 3-MCPD was extracted from the supernatant using Extrelut columns or the Accelerated Solvent Extractor method, and partitioned into ethyl acetate. • Step 5. Preparation of samples for analysis: The organic phase was concentrated with a rotary evaporator, and transferred to a vial, containing an internal standard (3-monochloro-1-propanol (3-MCP) or 3-MCPD-d5). • Step 6. Analysis: Final detection and monitoring of substrate was accomplished by gas chromatography techniques (GC or GC-MS).
Conditioning of baker's yeast: 60g active dry baker's yeast was added to 300 g distilled water under magnetic stirring for 20 min at room temperature. The yeast cream was then centrifuged at 5000 rpm for 15 min, at 4°C (Beckman Model J2-21M Centrifuge) and supernatant was discarded. The pellet was resuspended in equivalent amount (225ml) of distilled water. The obtained yeast cream solution (pH 5.8) was then used for bioconversion assays.
Bioconversion assay: 150 g of the yeast cream solution obtained as described above was placed in a 200 ml reactor vessel equipped with an electrode and a magnetic stirrer (500 rpm). The flask was kept at 28°C using an oil bath equipped with a thermostat (Heidolph MR 3003), and pH was adjusted to the desired pH condition (pH 6.2, pH 7.0, or pH 8.2) with 2M NaOH solution.
[…] The pH was automatically maintained throughout the reaction with regular adjunction of 2M NaOH (Metrohm 691 pH-Meter, equipped with Metrohm Impulsomat 614 and Dosimat 665).
Aliquots of 6 ml were withdrawn from the reaction mixture at different incubation times and centrifuged at 3000 rpm, during 4 min, at 25°C (Beckman Model TJ6 Centrifuge). The pellet was discarded, and the supernatant absorbed onto an Extrelut 3 column or hydromatrix column (placed in the Accelerated Solvent Extractor). 3-MCPD was then partitioned into ethyl acetate, volume was reduced to 2 ml by rotary evaporation, and transferred to a 10 ml graduated tube. 1ml of the internal standard (3-MCP or 3-MCPD-d5) was added to the vial and made up to volume with ethyl acetate. Finally, the extract was dried over anhydrous sodium sulfate, and analyzed for 3-MCPD content by gas chromatography (GC or GC-MS).
The study of 3-MCPD biodegradation by baker's yeast was made by varying different parameters and measuring their influence on the yield and rate of 3-MCPD degradation. The effect of the following parameters were studied: • pH 6.2, 7.0 and 8.2 • presence of glucose in the reaction mixture • substrate stereospecificity: (R)-and (S)-enantiomers • substrate concentration: 800 ppb and 3000 ppm
The results of the biodegradation assays are reported as a percentage of conversion of 3-MCPD as function of reaction time.
Final conversion values were referred to 48h reaction time in order to compare the different biodegradation assays performed. Comparison of bioconversions after 48 h reaction time has been chosen in respect of the enzymatic nature of the reaction studied (many non-enzymatic reactions could occur in a longer time frame).
A control vial (reaction medium with substrate, but without microorganism) was run alongside the reaction. This control permitted the subtraction of the non-enzymatic conversion of 3-MCPD under the experimental conditions tested. […]

Setting [1] is: 3000 ppm, pH 8.2, 28°C, without glucose.
[2] abbreviates: 800 ppb, pH 8.2, 28°C, without glucose.
Setting [3] is: 3000 ppm, pH 6.2, 28°C, without glucose.
Setting [4] is: 3000 ppm, pH 7.0, 28°C, without glucose.

Consider `OC[C@@H](O)CCl` [(R)-3-MCPD, (R)-(-)-3-monochloro-1,2-propanediol], for which, under setting [1], the “Biodegradation of 3-MCPD with baker's yeast, After 24 h” value is on record as 20% and the “Biodegradation of 3-MCPD with baker's yeast, After 48 h” value (“Biodegradation of 3-MCPD … After 48 h” for short) is on record as 60%.
For `OC[C@H](O)CCl` [(S)-3-MCPD, (S)-(+)-3-monochloro-1,2-propanediol], in that order: 55% and 85%.
On to `OCC(O)CCl` (racemic) [(R,S)-3-MCPD, 3-Monochloro-1,2-propanediol], for which the “Biodegradation of 3-MCPD with baker's yeast, After 24 h” value is, setting by setting: under setting [2], 50%; (800 ppb, pH 8.2, 28°C, without glucose, listed as racemic 3-MCPD) “about 50%”; under setting [3], 8%; under setting [4], 20%; under setting [1], 26%; (3000 ppm, pH 8.2, + glucose) 60%. Further, the “Biodegradation of 3-MCPD … After 48 h” value is reported as 70% under setting [2]; 12% under setting [3]; 35% under setting [4]; 45% under setting [1]; 45% (3000 ppm, pH 8.2, 28°C, without glucose, listed as 3-MCPD); “about 50%” (3000 ppm, pH 8.2, 28°C, without glucose, listed as racemic 3-MCPD). Moreover, the “Biodegradation of 3-MCPD … After 48 h” value (3000 ppm, pH 8.2, + glucose) stood at 68%. Under “2000 ppm, pH 8.2, in the presence of glucose, after 24h reaction”, the highest conversion is given as 60%.
